The source of these data is patent US20240067651A1 (Biohaven Therapeutics Ltd., priority 2019, published 2024).

Data set [1] is described as follows: Caco-2 Permeability Assay. In kind it is in vitro ADME, human. The conditions noted are these: human. The method in brief: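 Bidirectional transport at 37 °C for 90 min, 10 μM donor concentration, with or without Pgp inhibitor, across 21-day Caco-2 monolayers with TEER >600 […] in HEPES-buffered HBSS, pH 7.4. LC-MS/MS of donor and receiver samples gives Papp, B→A/A→B efflux ratio and mass recovery.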
(In general: Passage across Caco-2 layers is used to estimate intestinal permeability.)

A short description of data set [2]: Stability in Simulated Gastric Fluid (SGF). The class given is in vitro ADME. Details: key: % parent compound remaining relative to 0-minute sample. The method in brief:
(§1)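 Percent of parent remaining relative to time zero was measured by LC-MS/MS over 0–60 min at 37 °C, 150 rpm. Test compound was 2 μg/mL final in pepsin-containing SGF, pH 1.2, or pancreatin-containing SIF, pH 6.8. Degradation half-life was derived from the log-linear decay where enough points allowed.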

A short description of data set [3]: Stability in Simulated Intestinal Fluid (SIF). Also on record: key: % parent compound remaining relative to 0-minute sample. In kind it is in vitro ADME. The method in brief: as §1
A short description of another data set: Plasma Stability. In kind it is in vitro ADME, human. The procedure, abridged:
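Parent compound quantified by LC-MS/MS after acetonitrile precipitation, reported as percent of control remaining (triplicate). Incubation: 1 hour, 37° C, fresh human plasma, compound at 1 μM.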

Setting [4] is: % remaining at 1 h, SGF with pepsin pH 1.2, 2 μg/mL, 37° C.
The mark [5] stands for this setting: % remaining at 1 h, SIF with pancreatin pH 6.8, 2 μg/mL, 37° C.
[6] abbreviates: % remaining at 1 h, human plasma, 1 μM, 37° C.
Setting [7] is: Caco-2, pH 7.4, donor 10 μM, 90 minutes, 37° C., direction not given.

`CC(C)OCCn1c(=S)[nH]c(=O)c2c1ccn2COC(=O)CCNC(=O)C1CCCN1C(=O)OC(C)C.O=C(O)C(F)(F)F` (stereo not drawn) [Example 68]: the Papp (as a rule, the rate of passage across a membrane or cell layer, normalised by area and donor concentration) at 90 min, 10 µM in data set [1] (Caco-2, pH 7.4, Caco-2 monolayer) came to 2.26 ×10⁻⁶ cm/s. The SGF in data set [2] (% remaining at 1 h in simulated gastric fluid) is listed as 76% remaining. For the same compound, the SIF in data set [3] (% remaining at 1 h in simulated intestinal fluid) is listed as 69% remaining. In addition, in “Plasma Stability” (% remaining at 1 h in human plasma), the “human Plasma stability” value amounted to 100%.
Compound `CC(C)OCCn1c(=S)n(COCC[Si](C)(C)C)c(=O)c2[nH]ccc21` [Example 70, 1-[2-(Propan-2-yloxy)ethyl]-2-sulfanylidene-3-{[2-(trimethylsilyl)ethoxy]methyl}-1H,2H,3H,4H,5H-pyrrolo[3,2-d]pyrimidin-4-one] registered a Papp at 90 min, 10 µM in data set [1] (Caco-2, pH 7.4, no unit printed at the place (tables the 9th table and the 10th table have no head)) of 23.2 ×10⁻⁶ cm/s. Besides, in data set [2] (setting [4]), the SGF was 96%. Further, in data set [3] (setting [5]), the SIF was 99%. The “human Plasma stability” value in the data set “Plasma Stability” (setting [6]) amounted to 99%.
Regarding `CC(C)OCCn1c(=S)n(COCC[Si](C)(C)C)c(=O)c2c1ccn2COCC[Si](C)(C)C` [Example 71, 1-[2-(propan-2-yloxy)ethyl]-2-sulfanylidene-3,5-bis({[2-(trimethylsilyl)ethoxy]methyl})-1H,2H,3H,4H,5H-pyrrolo[3,2-d]pyrimidin-4-one], the Papp at 90 min, 10 µM in data set [1] (setting [7]) came out at 0.178 ×10⁻⁶ cm/s. The SGF in data set [2] (setting [4]) is given as 98%. In data set [3] (setting [5]), the SIF is 88%. Also, in “Plasma Stability” (setting [6]), the “human Plasma stability” value came to 58%.
For `CC(C)OCCn1c(=S)[nH]c(=O)c2c1ccn2COCC[Si](C)(C)C` [Example 72, 1-[2-(propan-2-yloxy)ethyl]-2-sulfanylidene-5-{[2-(trimethylsilyl)ethoxy]methyl}-1H,2H,3H,4H,5H-pyrrolo[3,2-d]pyrimidin-4-one], the Papp at 90 min, 10 µM in data set [1] (setting [7]) came to 26.4 ×10⁻⁶ cm/s. Further, the SGF in data set [2] (setting [4]) is listed as 97%. In addition, the SIF in data set [3] (setting [5]) is reported as 98%. Further, the “human Plasma stability” value in the data set “Plasma Stability” (setting [6]) is recorded as 78%.
For the compound `CC(C)OCCn1c(SCOCC[Si](C)(C)C)nc(=O)c2c1ccn2COCC[Si](C)(C)C` [Example 73, 1-[2-(propan-2-yloxy)ethyl]-5-{[2-(trimethylsilyl)ethoxy]-methyl}-2-({[2-(trimethylsilyl)ethoxy]methyl}sulfanyl)-1H,4H,5H-pyrrolo[3,2-d]pyrimidin-4-one], the Papp at 90 min, 10 µM in data set [1] (setting [7]) was less than 0.717 ×10⁻⁶ cm/s. In data set [2] (setting [4]), the SGF was 35%. For the same compound, the SIF in data set [3] (setting [5]) is 55%. For the same compound, the “human Plasma stability” value in the data set “Plasma Stability” (setting [6]) is given as 99%.
In data set [1] (setting [7]), `CC(C)OCCn1c(=S)[nH]c(=O)c2c1ccn2COP(=O)(O)O` [Example 83, ({4-oxo-1-[2-(propan-2-yloxy)ethyl]-2-sulfanylidene-1H,2H,3H,4H,5H-pyrrolo[3,2-d]pyrimidin-5-yl}methoxy)phosphonic acid] had a Papp at 90 min, 10 µM of less than 1.07 ×10⁻⁶ cm/s. Further, in data set [2] (setting [4]), the SGF is on record as 91%. For the same compound, the SIF in data set [3] (setting [5]) is listed as 100%. In addition, the “human Plasma stability” value in the data set “Plasma Stability” (setting [6]) is on record as 95% @.
`CC(C)OCCn1c(=S)[nH]c(=O)c2c1ccn2COC(=O)[C@@H]1CCC(=O)N1C(=O)OC(C)(C)C` [Example 85, 1-tert-Butyl 2-{4-oxo-1-[2-(propan-2-yloxy)ethyl]-2-sulfanylidene-1H,2H,3H,4H,5H-pyrrolo[3,2-d]pyrimidin-5-yl}methyl (2S)-5-oxopyrrolidine-1,2-dicarboxylate] displayed a Papp at 90 min, 10 µM in data set [1] (setting [7]) of 6.54 ×10⁻⁶ cm/s. The SGF in data set [2] (setting [4]) is reported as 78%. The SIF in data set [3] (setting [5]) is recorded as 90%. Also, the “human Plasma stability” value in “Plasma Stability” (setting [6]) came to 30%.
Compound `CC(C)OCCn1c(=S)[nH]c(=O)c2c1ccn2COC(=O)[C@@H]1CCC(=O)N1` [Example 86, {4-Oxo-1-[2-(propan-2-yloxy)ethyl]-2-sulfanylidene-1H,2H,3H,4H,5H-pyrrolo[3,2-d]pyrimidin-5-yl}methyl(2S)-5-oxopyrrolidine-2-carboxylate] showed a Papp at 90 min, 10 µM in data set [1] (setting [7]) of 0.24 ×10⁻⁶ cm/s. The SGF in data set [2] (setting [4]) is listed as 98%. For the same compound, in data set [3] (setting [5]), the SIF is listed as 17%. Also, the “human Plasma stability” value in the data set “Plasma Stability” (setting [6]) was 0%.
Consider `COCCOCCOCC(=O)OCn1ccc2c1c(=O)[nH]c(=S)n2CCOC(C)C` [Example 87], for which the Papp at 90 min, 10 µM in data set [1] (setting [7]) is 7.05 ×10⁻⁶ cm/s. For the same compound, the SGF in data set [2] (setting [4]) is on record as 97%. Also, the SIF in data set [3] (setting [5]) was 28%. Besides, the “human Plasma stability” value in “Plasma Stability” (setting [6]) is listed as 0%.
